Consider three molecules from patent EP3694851B1, “ENVIRONMENTALLY DEGRADABLE QUINOLONE ANTIBIOTICS HAVING A HEMIAMINAL STRUCTURAL UNIT” (priority 2017, dated 2019).

The nature of data set [1]: Abiotic hydrolysis (pH-dependent, phosphate-buffered saline, HPLC). Conditions: for Abspaltung des labilen Linkers: Figures 6a and 6b; for Abbau des Hemiaminal-Restes: within 7 days. How it is done: Der pH-Wert wurde auf pH 6, pH 7,4 oder pH 9 eingestellt. Die Ansätze wurden bei 37 °C für pH 6 und 7,4 und bei Raumtemperatur für pH 9 unter Schütteln (250 rpm) für 28 Tage inkubiert. An Tag 0, 1, 7, 14, 21 und 28 wurden Proben (700µL) für die HPLC Analyse entnommen. Der Quotient der Ausgangskonzentration co durch die Konzentration am jeweiligen Zeitpunkt (ct) wurde kalkuliert und als natürlicher Logarithmus gegen die Inkubationszeit aufgetragen.
Eine NUCLEODUR® RP-C18 (CC 125/4 100-5µm C18 ec) Säule und mobile Phasen bestehend aus 0.1 % Ameisensäure in hochreinem Wasser (CH2O2: Solution A) and 100 % Acetonitril (CH3CN: Solution B) wurden verwendet. Die Flußrate wurde auf 0.5 mL min^-1 eingestellt. Die Temperatur des Säulenofens wurde auf 25 °C eingestellt und das Injektionsvolumen betrug 10 µL. […] Die Testsubstanzen wurden durch einen UV/Vis Detektor bei 270 nm detektiert. Die Fließgradientenmethode wurde angewendet wie in Tabelle 1 aufgelistet. Tabelle 1 : Fließgradientenbedingungen zur chromatographischen Analyse der Testsubstanzen

The subject of data set [2] is Vibrio fischeri NRRL-B-11177. The experiment in a line: Luminescence inhibition in V. fischeri (luminescent bacteria test). Conditions: after cleavage of the linker, compared with Verbindung 1; Figure 5. In kind it is cell-based. The text has this:
Die antibiotische Aktivität in V. fischeri wurden in einem Leuchtbakterientest (LBT) mit Vibrio fischeri NRRL-B-11177 (Hach-Lange GmbH, Düsseldorf, Germany) untersucht. Die Durchführung des LBT erfolgte nach dem modifizierten Protokoll von Menz et al. (2013), siehe Literaturliste.

The subject of data set [3] is E. faecalis ATCC 29121, P. aeruginosa ATCC 27853, S. aureus ATCC 29213, E. coli ATCC 25922, S. aureus ATCC 43300, K. pneumoniae ATCC 700603, A. baumanii ATCC …. Nature of the data set: Minimal inhibitory concentrations in various bacterial strains (broth microdilution). The format is cell-based. The text has this: Minimale Hemmkonzentrationen in verschiedenen Bakterienstämmen: Die antibiotische Aktivität wurde mittels Durchführung der Broth-Mikroverdünnungsmethode ermittelt (Cockerill et al., 2012, siehe Literatur). Es wurden die folgenden Bakterienstämme verwendet: Staphylococcus aureus (ATCC 29213), Enterococcus faecalis (ATCC 29212), Escherichia coli (ATCC 25922) und Pseudomonas aeruginosa (ATCC 27853), sowie S. aureus (ATCC 43300), K. pneumoniae (ATCC 700603), A. baumanii (ATCC 19606). Die Bestimmungen der minimalen Hemmkonzentrationen wurden durch zwei unabhängige Laboratorien durchgeführt.
Bakterienzellen wurden bei einer Zelldichte von 2 - 8 × 10^5 cfu/ml in 200 µl Mueller-Hinton-Brothmedium verdünnt. Die Ansätze enthielten eine Verdünnungsreihe der Testsubstanzen. Diese inokulierten 96-well Platten wurden für 18 h bei 36°C inkubiert. Die minimale Hemmkonzentration wurde ermittelt durch visuelle Abschätzung der niedrigsten Konzentration, die die Bakterien vollständig gehemmt hatte.

A short description of data set [4]: Stability test at low pH (Marbofloxacin). The format is physicochemical.
For data set [5], the system named is Humane embryonale Nierenzellen (HEK293). Nature of the data set: Cytotoxicity test in HEK293 cells. The format is cell-based, human. Conditions: Figure 3. Here is the method:
Humane embryonale Nierenzellen (HEK293) wurden in 384-well-Platten mit einer Dichte von 6000 Zellen/well in einem finalen Volumen von 50 µl mit der gewünschten Konzentration der Testsubstanz ausgesät. DMEM mit 10% fötalem Rinderserum (FBS) wurde als Wachstumsmedium verwendet. Die Zellen wurden zusammen mit den Testsubstanzen für 20 h bei 37 °C mit 5% COz inkubiert.

For data set [6], the system named is Escherichia coli K12 ATCC 23716. Nature of the data set: Growth inhibition in E. coli (96-well plate, 4 h at 37°C, absorption at 600 nm). The format is cell-based. Conditions: ATCC23716, 4 h, E. coli (ATCC 23716), activity in the range of medium-strength fluoroquinolones, Figure 4. How it is done:
Escherichia coli K12 ATCC 23716 wurde von DSMZ GmbH (Braunschweig, Germany) erhalten.
Die Testsubstanzen wurden in Wasser verdünnt und auf einer 96-well-Platte zur Bakteriensuspension (in 2x Bakterienmedium (10 g Pepton and 6 g Fleischextrakt in 1 Liter)) gegeben, so dass die Endkonzentration des Mediums 1x war. Die Platte wurde 4h bei 37°C inkubiert. Die Zelldichte wurde photometrisch durch Messung der Absorption bei 600 nm bestimmt. Die Wachstumshemmung in Prozent der unbehandelten Kontrollen gegen die Konzentration der Testsubstanz aufgetragen.

≈ marks a conversion by molar mass, not a printed value.

For `O=C(O)c1cnc2cc(N3CCNCC3)c(F)cc2c1O` [Cip-d-CP, reference compound], the “Instabilität unter den gewählten pH-Bedingungen” value in data set [1] (chosen pH conditions (pH 6, pH 7,4 at 37°C; pH 9 at room temperature; 28 days)) is reported as “Weder das verbleibende Fragment noch die Ausgangssubstanz Ciprofloxacin waren unter den gewählten pH-Bedingungen instabil”. Further, in data set [2], the “antibiotische Aktivität in V. fischeri (Leuchthemmung)” value was “deutliche Abschwächung der antibiotischen Aktivität nach Abspaltung des Linkers”. Moreover, in data set [3] (fragment after cleavage of the linker compared with Verbindung 1, Figures 2 and 3), the “antibiotische Aktivität (MHK) im Vergleich zur Ausgangssubstanz” value is on record as “deutlich schwächer aktiv als die Ausgangssubstanz”.
For `CN1CCN(c2c(F)cc3c(=O)c(C(=O)O)cn4c3c2OCN4C)CC1` [Marbofloxacin], the “Instabilität bei niedrigem pH” value in data set [4] is recorded as “kaum Instabilität beobachtet”.
Turning to `O=C(O)c1cn(C2CCCO2)c2cc(N3CCNCC3)c(F)cc2c1=O` (stereo not drawn) [Verbindung 1], the “Zytotoxizität in humanen Zellen (HEK 293)” value in data set [5] is on record as “keine Hinweise auf einen Zytotoxizität”. For the same molecule, in data set [6], the minimal inhibitory concentration (MIC) lay in the range of 0.1 to 1 µg/mL (≈ 0.277 to 2.77 µM). Also, the “Abspaltung des labilen Linkers” value was “schnell” in data set [1] (at low pH) and “langsam” in data set [1] (under physiological conditions). The entries for the “Abbau des Hemiaminal-Restes” value in data set [1] (low pH of four (e.g. in urine)) and in data set [1] (physiological conditions (pH= 7,4)) were “zum größten Teil abgebaut” and “nur langsam abgebaut”, respectively. The “Aktivität in anderen pathogenen Bakterien” value in data set [3] (other pathogenic bacteria, compared with quinolone generations) was “über den Chinolonen der ersten Generation, aber unterhalb etablierter Fluorchinolone der zweiten Generation”. Also, the “antibakterielle Aktivität” value in data set [3] (strains of E. coli, K. pneumoniae, P. aeruginosa and V. fischeri, compared with medium-strength fluoroquinolones) is given as “zu mittelstarken Fluorchinolonen eine vergleichbare antibakterielle Aktivität”.
